PubChem BioAssay AID1963970 (Molecular Pharmacology Branch, DTP, NCI, 2024)

Test system: 931267-113-T-J1-PDC multicell spheroid viability
Test: Anticancer human tumor 931267-113-T-J1-PDC patient-derived colon adenocarcinoma cell line growth inhibition [PI3K]
Conditions: for IC50: curve of first compound; for viability, T/C: stronger effect = lower value
Procedure, shortened: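 High-throughput combination screen: PI3K inhibitors crossed with targeted small molecules on complex spheroids of tumor cells, HUVEC and MSCs at 37 degrees C, 5% CO2. Top concentration was at or near clinical Cmax (otherwise 10 microM), with half-log decrements.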

[1] = second compound 0.0316 µM, first compound 0.0316 µM
[2] = second compound 0.0316 µM, first compound 0.1 µM
[3] = second compound 0.0316 µM, first compound 0.316 µM
[4] = second compound 0.0316 µM, first compound 1 µM
[5] = second compound 0.0316 µM, first compound 3.16 µM
[6] = second compound 0.0316 µM, first compound 10 µM
[7] = second compound 0.1 µM, first compound 0.0316 µM
[8] = second compound 0.1 µM, first compound 0.1 µM
[9] = second compound 0.1 µM, first compound 0.316 µM
[10] = second compound 0.1 µM, first compound 1 µM
[11] = second compound 0.1 µM, first compound 3.16 µM
[12] = second compound 0.1 µM, first compound 10 µM
[13] = second compound 0.316 µM, first compound 0.0316 µM
[14] = second compound 0.316 µM, first compound 0.1 µM
[15] = second compound 0.316 µM, first compound 0.316 µM
[16] = second compound 0.316 µM, first compound 1 µM
[17] = second compound 0.316 µM, first compound 3.16 µM
[18] = second compound 0.316 µM, first compound 10 µM
[19] = second compound 1 µM, first compound 0.0316 µM
[20] = second compound 1 µM, first compound 0.1 µM
[21] = second compound 1 µM, first compound 0.316 µM
[22] = second compound 1 µM, first compound 1 µM
[23] = second compound 1 µM, first compound 3.16 µM
[24] = second compound 1 µM, first compound 10 µM
[25] = second compound 3.16 µM, first compound 0.0316 µM
[26] = second compound 3.16 µM, first compound 0.1 µM
[27] = second compound 3.16 µM, first compound 0.316 µM
[28] = second compound 3.16 µM, first compound 1 µM
[29] = second compound 3.16 µM, first compound 3.16 µM
[30] = second compound 3.16 µM, first compound 10 µM
[31] = second compound 10 µM, first compound 0.0316 µM
[32] = second compound 10 µM, first compound 0.1 µM
[33] = second compound 10 µM, first compound 0.316 µM
[34] = second compound 10 µM, first compound 1 µM
[35] = second compound 10 µM, first compound 3.16 µM
[36] = second compound 10 µM, first compound 10 µM
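Note: viability read 7 days after compound addition.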

CC1(C)CCC(CN2CCN(c3ccc(C(=O)NS(=O)(=O)c4ccc(NCC5CCOCC5)c([N+](=O)[O-])c4)c(Oc4cnc5[nH]ccc5c4)c3)CC2)=C(c2ccc(Cl)cc2)C1 + CC(Nc1ncnc2nc[nH]c12)c1cc2cccc(Cl)c2c(=O)n1-c1ccccc1
IC50 (second compound 0.0316 µM): 7.07 µM | IC50 (second compound 0.1 µM): 7.1 µM | IC50 (second compound 0.316 µM): 7.17 µM | IC50 (second compound 1 µM): 6.84 µM | IC50 (second compound 3.16 µM): 7.09 µM | IC50 (second compound 10 µM): 6.79 µM | viability, T/C [1]: 105% | viability, T/C [2]: 105% | viability, T/C [3]: 102% | viability, T/C [4]: 110% | viability, T/C [5]: 99.3% | viability, T/C [6]: 28.5% | viability, T/C [7]: 113% | viability, T/C [8]: 112% | viability, T/C [9]: 105% | viability, T/C [10]: 106% | viability, T/C [11]: 107% | viability, T/C [12]: 25.9% | viability, T/C [13]: 103% | viability, T/C [14]: 98.2% | viability, T/C [15]: 106% | viability, T/C [16]: 110% | viability, T/C [17]: 101% | viability, T/C [18]: 29.1% | viability, T/C [19]: 105% | viability, T/C [20]: 101% | viability, T/C [21]: 95.3% | viability, T/C [22]: 103% | viability, T/C [23]: 92.4% | viability, T/C [24]: 28.9% | viability, T/C [25]: 101% | viability, T/C [26]: 107% | viability, T/C [27]: 97.4% | viability, T/C [28]: 107% | viability, T/C [29]: 99.3% | viability, T/C [30]: 29% | viability, T/C [31]: 92.9% | viability, T/C [32]: 87.7% | viability, T/C [33]: 98.4% | viability, T/C [34]: 97.3% | viability, T/C [35]: 92.6% | viability, T/C [36]: 28.4%

CCCS(=O)(=O)Nc1ccc(F)c(C(=O)c2c[nH]c3ncc(-c4ccc(Cl)cc4)cc23)c1F + CC(Nc1ncnc2nc[nH]c12)c1cc2cccc(Cl)c2c(=O)n1-c1ccccc1
IC50 (second compound 0.0316 µM): 6.07 µM | IC50 (second compound 0.1 µM): 6.04 µM | IC50 (second compound 0.316 µM): 6.07 µM | IC50 (second compound 1 µM): 5.96 µM | IC50 (second compound 3.16 µM): 5.92 µM | IC50 (second compound 10 µM): 5.69 µM | viability, T/C [1]: 102% | viability, T/C [2]: 101% | viability, T/C [3]: 104% | viability, T/C [4]: 125% | viability, T/C [5]: 112% | viability, T/C [6]: 4.93% | viability, T/C [7]: 101% | viability, T/C [8]: 111% | viability, T/C [9]: 103% | viability, T/C [10]: 107% | viability, T/C [11]: 119% | viability, T/C [12]: 4.62% | viability, T/C [13]: 107% | viability, T/C [14]: 103% | viability, T/C [15]: 109% | viability, T/C [16]: 122% | viability, T/C [17]: 110% | viability, T/C [18]: 3.9% | viability, T/C [19]: 102% | viability, T/C [20]: 93.9% | viability, T/C [21]: 113% | viability, T/C [22]: 110% | viability, T/C [23]: 109% | viability, T/C [24]: 4.52% | viability, T/C [25]: 99.2% | viability, T/C [26]: 99.9% | viability, T/C [27]: 102% | viability, T/C [28]: 116% | viability, T/C [29]: 104% | viability, T/C [30]: 5.3% | viability, T/C [31]: 92.3% | viability, T/C [32]: 95.2% | viability, T/C [33]: 99.6% | viability, T/C [34]: 108% | viability, T/C [35]: 97.7% | viability, T/C [36]: 4.17%

C[C@@H](NC(=O)c1ncnc(N)c1Cl)c1ncc(C(=O)Nc2cc(C(F)(F)F)c(Cl)cn2)s1 + CC(Nc1ncnc2nc[nH]c12)c1cc2cccc(Cl)c2c(=O)n1-c1ccccc1
IC50 (second compound 0.0316 µM): > 10 µM | IC50 (second compound 0.1 µM): > 10 µM | IC50 (second compound 0.316 µM): > 10 µM | IC50 (second compound 1 µM): > 10 µM | IC50 (second compound 3.16 µM): > 10 µM | IC50 (second compound 10 µM): > 10 µM | viability, T/C [1]: 107% | viability, T/C [2]: 117% | viability, T/C [3]: 117% | viability, T/C [4]: 104% | viability, T/C [5]: 92.7% | viability, T/C [6]: 74.5% | viability, T/C [7]: 121% | viability, T/C [8]: 107% | viability, T/C [9]: 110% | viability, T/C [10]: 111% | viability, T/C [11]: 98.9% | viability, T/C [12]: 78.1% | viability, T/C [13]: 113% | viability, T/C [14]: 116% | viability, T/C [15]: 104% | viability, T/C [16]: 110% | viability, T/C [17]: 103% | viability, T/C [18]: 75.1% | viability, T/C [19]: 115% | viability, T/C [20]: 114% | viability, T/C [21]: 105% | viability, T/C [22]: 110% | viability, T/C [23]: 107% | viability, T/C [24]: 69.4% | viability, T/C [25]: 98.5% | viability, T/C [26]: 108% | viability, T/C [27]: 103% | viability, T/C [28]: 95.8% | viability, T/C [29]: 98.2% | viability, T/C [30]: 66.5% | viability, T/C [31]: 96.4% | viability, T/C [32]: 107% | viability, T/C [33]: 99.8% | viability, T/C [34]: 106% | viability, T/C [35]: 86% | viability, T/C [36]: 53.2%
